According to US20190192532A1, “COMBINATION THERAPY OF BROMODOMAIN INHIBITORS AND CHECKPOINT BLOCKADE” (DANA-FARBER CANCER INSTITUTE, priority 2015, published 2019):

What was measured:
PD-L1 (CD274) = assay: PD-L1 expression on Eμ-Myc lymphoma cell lines by flow cytometry (MFI) after in vitro treatment; type: cell-based, murine; conditions: for expression of PD-L1 (CD274) on lymphoma cells (MFI): 24 hours in vitro, vs DMSO
Protocol: (§1) […] lymphoma cells (5×10^5) were incubated in the presence of JQ1, or DMSO, in 500 μL culture media in a 48 well plates (Corning, N.Y.) prior to analysis of PD-L1/L2 expression by flow cytometry. Human RPMI-8226 and L540 cells (5×10^5) were incubated in the presence of JQ1, or DMSO vehicle, in 500 μL culture media in a 48 well plates (Corning, N.Y.). Additionally RPMI-8226 cells were cultured with 100 ng/ML, IFN-γ as a single agent and in combination with JQ1, prior to analysis of PD-L1/L2 expression by flow cytometry.
Cell suspensions were washed once with ice-cold flow cytometry buffer (2% FCS and 0.02% NaN3 in PBS) and resuspended in anti-CD16/32 monoclonal antibody (clone 2.4G2) on ice for 30 minutes to block Fc receptors. Cell suspensions were washed once with ice-cold flow cytometry buffer and stained on ice for 30 minutes with the following conjugated antibodies: anti-mouse CD3 (pacific blue, 1:400, clone 17A2), anti-mouse CD4 (APC, 1:400, clone RM4-5), anti-mouse CD8 (PE-Cy7, 1:400, clone 53-6.7), anti-mouse PD-1 (FITC, 1:400, clone J43), anti-mouse PD-L1 (PE, 1:100, clone MIH5), anti-mouse PD-L2 (Biotin, 1:200, clone TY25), anti-human PD-L1 (PE, 1:200, clone 29E.2A3), or anti-human PD-L2 (Biotin, 1:200, clone 24F.10C12). Biotinylated antibodies were subsequently incubated with Streptavidin-PE-Cy7 (1:1000, catalogue number 25-4317-82) or Streptavidin-Pacific Blue (1:1000, catalogue number 48-4317-82) for 30 minutes on ice. Anti-Armenian Hamster IgG (FITC, 1:400, catalogue number 554011), Mouse IgG2aκ (PE, 1:100, clone RTK2758), Rat IgG2aκ (Biotin, 1:200, clone eBR2a), Mouse IgG2bκ (PE, 1:200, catalogue number 559529), and Mouse IgG2aκ (Biotin, 1:200, clone eBM2a) were used as isotype control antibodies, respectively. All antibodies were purchased from BioLegend (San Diego, Calif.), eBiosciences (San Diego, Calif.), or BD Bioscience (San Diego, Calif.). Cell suspensions were washed once with ice-cold flow cytometry buffer, resuspended in ice-cold flow cytometry buffer containing 7-AAD (1:1000, BD Bioscience) and analyzed by flow cytometry. Data was collected on a LSR Fortessa flow cytometer (BD Biosciences) and analyzed using FlowJo Software, version 10.0.7 (Tree Star).
As described in FIGS. 2A and 2B, JQ1 downregulates the expression of PD-L1 (CD274) on lymphoma cells as determined by flow cytometry analysis. Graphs showing the mean fluorescence intensity (MFI) of PD-L1 on Eμ-Myc lymphoma cell lines (FIG. 2A) ^#4242 and (FIG. 2B) ^#299 over-expressing Bcl-2 following 24 hours treatment in vitro with indicated concentrations of JQ1, or DMSO control are provided. Representative data are presented as mean MFI of cells cultured and analyzed in triplicate±S.E.M. (****p <0.0001, Student's t test).
PD-L1 downregulation following BET inhibition is time-dependent. Flow cytometry analysis of PD-L1 expression on Eμ-Myc lymphoma cell line ^#6066 following treatment in vitro with 500 nM JQ1 or DMSO control for indicated time points was performed.
Chemically distinct bromodomain inhibitors downregulate the expression of PD-L1 (CD274) on lymphoma cells, as shown by flow cytometry. […] Representative data are presented as mean MFI of cells cultured and analyzed in triplicate±S.E.M. (***p<0.001, Student's t test).

Eμ-Myc lymphoma #299 = assay: Survival of mice bearing Eμ-Myc lymphoma #299 treated with JQ1 plus anti-PD-1 or anti-4-1BB antibody; type: in vivo, mouse; conditions: JQ1 50 mg/kg i.p., 25 doses, combined with 100 μg anti-PD-1 (days 5, 10, 15, 20) or anti-4-1BB (days 5, 8, 11)
Protocol: (§2) Female C57BL/6 mice were purchased. C57BL/6.Rag2cγ^−/− mice were bred in house. C57BL/6.Rag1^−/− mice were purchased. For transplantation of Eμ-Myc lymphomas in vivo, cohorts of six- to eight-week-old syngeneic mice were inoculated via tail vein injection with 1-4×10^5 Eμ-Myc lymphoma cells. Mice were treated with 50 mg/kg JQ1, reconstituted in 1 part DMSO to 9 parts 10% (w/v) Hydroxypropyl-β-cyclodextrin (HPBCD; Cyclodextrin Technologies Development Inc., Gainesville, Fla.) In sterile water, or DMSO vehicle control. Mice were dosed once daily (5 days/week) via intra-peritoneal (i.p.) injection, commencing three days post-intravenous inoculation, for a total of 5 weeks therapy or until treatment failure. Tumor-bearing C57BL/6 mice were treated with the following monoclonal antibodies via i.p. injection: Anti-4-1-BB (Anti-CD137, 100 μg, 3H3; BioXCell), anti-PD-1 (100 μg, […]; BioXCell), or control immunoglobulin. (cIg, Rat IgG2a, 2A3, 100 μg; BioXCell). Anti-PD-1 mAb was dosed on days 5, 10, 15, and 20 post tumor transplant. Anti-4-1BB mAb was dosed on days 5, 8, and 11 post tumor transplant.
FIGS. 4A and 4B show Kaplan-Meier survival curves representing cohorts of […] (n=6 per treatment group) injected intravenously with 1-5×10^5 Eμ-Myc lymphoma ^#299 cells. […]

PD-L1 [1] = assay: Constitutive PD-L1 expression on Hodgkin lymphoma cell line L540 by flow cytometry; type: cell-based, human; conditions: L540 cells; 24 hours in vitro; indicated concentrations
Protocol: as §1
(§3) Cell suspensions were washed once with ice-cold flow cytometry buffer (2% FCS and 0.02% NaN3 in PBS) and resuspended in anti-CD16/32 monoclonal antibody (clone 2.4G2) on ice for 30 minutes to block Fc receptors. […] Cell suspensions were washed once with ice-cold flow cytometry buffer, resuspended in ice-cold flow cytometry buffer containing 7-AAD (1:1000, BD Bioscience) and analyzed by flow cytometry. Data was collected on a LSR Fortessa flow cytometer (BD Biosciences) and analyzed using FlowJo Software, version 10.0.7 (Tree Star). […]

PD-L1 [2] = assay: PD-L1 expression on tumor cells of treated lymphoma-bearing mice by flow cytometry; type: in vivo, mouse
Protocol: as §3
(§4) A cohort of mice were injected intravenously with 1-5×10^5 Eμ-Myc lymphoma ^#4242 cells and left for 12 days to develop bulky nodal disease. Peripheral lymph nodes were harvested 16 hours following a single dose of JQ1 (50 mg/kg), or DMSO vehicle (n=3 per treatment group) and assessed by flow cytometry. […]
A cohort of mice were injected intravenously with 1-5×10^5 Eμ-Myc lymphoma ^#4242/Bcl-2 cells and treated daily with JQ1 (50 mg/kg), or DMSO vehicle (n=5 per treatment group). At day 18, peripheral blood was obtained and tumor cells were assessed by flow cytometry. […]

PD-L2 (CD273) = assay: PD-L2 expression on tumor cells of treated lymphoma-bearing mice by flow cytometry; type: in vivo, mouse; conditions: single dose 50 mg/kg; peripheral lymph nodes 16 hours after dose; Eμ-Myc lymphoma #4242 in C57BL/6 mice
Protocol: Cell suspensions were washed once with ice-cold flow cytometry buffer (2% FCS and 0.02% NaN3 in PBS) and resuspended in anti-CD16/32 monoclonal antibody (clone 2.4G2) on ice for 30 minutes to block Fc receptors. Cell suspensions were washed once with ice-cold flow cytometry buffer and stained on ice for 30 minutes with the following conjugated antibodies: anti-mouse CD3 (pacific blue, 1:400, clone 17A2), anti-mouse CD4 (APC, 1:400, clone RM4-5), anti-mouse CD8 (PE-Cy7, 1:400, clone 53-6.7), anti-mouse PD-1 (FITC, 1:400, clone J43), anti-mouse PD-L1 (PE, 1:100, clone MIH5), anti-mouse PD-L2 (Biotin, 1:200, clone TY25), anti-human PD-L1 (PE, 1:200, clone 29E.2A3), or anti-human PD-L2 (Biotin, 1:200, clone 24F.10C12). […] Cell suspensions were washed once with ice-cold flow cytometry buffer, resuspended in ice-cold flow cytometry buffer containing 7-AAD (1:1000, BD Bioscience) and analyzed by flow cytometry. Data was collected on a LSR Fortessa flow cytometer (BD Biosciences) and analyzed using FlowJo Software, version 10.0.7 (Tree Star). […]
as §4

PD-L1 transcript = assay: Quantitative real-time PCR of PD-L1 mRNA in Eμ-Myc lymphoma cell lines; type: cell-based, Mus musculus; conditions: 1000 nM; Eμ-Myc lymphoma #4242 and #299 over-expressing Bcl-2; indicated time points
Protocol: Eμ-Myc lymphomas cells were cultured in the presence of JQ1, or DMSO, as described above. RNA was extracted from cell pellets using the Nucleospine® RNA extraction kit (Macherey-Nagel, Bethlehem, Pa.) as per the manufacturer's instructions. cDNA was synthesized according to the manufacturer's instructions (Promega, Sydney, NSW). Quantitative PCR analysis of samples was performed on the 7900HT Fast Real-Time PCR System (Applied Biosystems, Mulgrave, VIC, Australia') with SYBR-green ROX mix (Agilent, Mulgrave, VIC, Australia). GAPDH was used as the murine control genes. Primer sequences were: Mus musculus PD-L1 F: […] (SEQ ID NO: 1) R: […] (SEQ ID NO: 2), Mus musculus GAPDH F: […] (SEQ ID NO: 3) R: […] (SEQ ID NO: 4).
Quantitative real-time-PCR (qPCR) analysis of PD-L1 mRNA levels in Eμ-Myc lymphoma cell lines (FIG. 2G) ^#4242 and (FIG. 2H) ^#299 over-expressing Bcl-2 following treatment with 1000 nM JQ1, or DMSO control, was performed at indicated time points. Transcript levels are presented as fold change compared to DMSO. Data are presented as mean fold-change from 3 separate experiments±S.E.M. (**p<0.01, ***p<0.001, ****p<0.0001, Student's t test).

Eμ-Myc lymphoma = assay: Survival of mice bearing transplanted Eμ-Myc lymphoma (Kaplan-Meier); type: in vivo, mouse; conditions: 50 mg/kg daily i.p.
Protocol: as §2
Cohorts of mice on a C57BL/6 background (n=10 per treatment group) were injected intravenously with 1-5×10^5 Eμ-Myc lymphoma cells three days prior to commencement of daily dosing with JQ1 (50 mg/kg), or DMSO vehicle., via i.p. injection. […]

PD-L1 [3] = assay: IFN-γ-inducible PD-L1 expression on multiple myeloma cell line RPMI-8226 by flow cytometry; type: cell-based, human; conditions: RPMI-8226 cells; 500 nM with 100 ng/mL IFN-γ; 24 hours
Protocol: as §1
Cell suspensions were washed once with ice-cold flow cytometry buffer (2% FCS and 0.02% NaN3 in PBS) and resuspended in anti-CD16/32 monoclonal antibody (clone 2.4G2) on ice for 30 minutes to block Fc receptors. […] Cell suspensions were washed once with ice-cold flow cytometry buffer, resuspended in ice-cold flow cytometry buffer containing 7-AAD (1:1000, BD Bioscience) and analyzed by flow cytometry. Data was collected on a LSR Fortessa flow cytometer (BD Biosciences) and analyzed using FlowJo Software, version 10.0.7 (Tree Star).
JQ1 treatment downregulates the IFN-γ-inducible expression of PD-L1 on human myeloma cell lines. […] Representative data are presented as mean MFI of cells cultured and analyzed in triplicate=S.E.M. (*p<0.05, Student's t test).

[4] = Eμ-Myc lymphoma cell line #6066, 1 μM

Cc1sc2c(c1C)C(c1ccc(Cl)cc1)=N[C@@H](CC(=O)NCCCCNC(=O)COc1cccc3c1C(=O)N(C1CCC(=O)NC1=O)C3=O)c1nnc(C)n1-2 (some centres unmarked) [dBET1]
expression of PD-L1 (CD274) on lymphoma cells (MFI) (PD-L1 (CD274); [4]): downregulate

Cc1sc2c(c1C)C(c1ccc(Cl)cc1)=N[C@@H](CC(=O)Nc1ccc(O)cc1)c1nnc(C)n1-2 [Y803]
expression of PD-L1 (CD274) on lymphoma cells (MFI) (PD-L1 (CD274); [4]): downregulate

COc1cc(OC)c2c(=O)[nH]c(-c3cc(C)c(OCCO)c(C)c3)nc2c1 [RVX-208]
expression of PD-L1 (CD274) on lymphoma cells (MFI) (PD-L1 (CD274); Eμ-Myc lymphoma cell line #6066, 10 μM): downregulate

Cc1sc2c(c1C)C(c1ccc(Cl)cc1)=N[C@@H](CC(=O)OC(C)(C)C)c1nnc(C)n1-2 [JQ1]
anti-tumor response (survival) in combination therapy (Eμ-Myc lymphoma #299): Promotes Curative Anti-Tumor Responses | constitutive expression of PD-L1 (MFI) (PD-L1 [1]): downregulates | PD-L1 expression on circulating tumor cells (MFI), chronic treatment (PD-L1 [2]; 50 mg/kg daily, peripheral blood at day 18, Eμ-Myc lymphoma #4242/Bcl-2 in C57BL/6 mice): express lower levels of PD-L1 | PD-L1 expression on live GFP-positive tumor cells (MFI), acute dose (PD-L1 [2]; single dose 50 mg/kg, peripheral lymph nodes 16 hours after dose, Eμ-Myc lymphoma #4242 in C57BL/6 mice): rapidly downregulates | PD-L2 expression on live GFP-positive tumor cells (MFI), acute dose (PD-L2 (CD273)): rapidly downregulates | PD-L1 mRNA level (fold change compared to DMSO) (PD-L1 transcript): rapidly downregulates | survival of JQ1-treated immune deficient mice versus JQ1-treated wild type mice (Eμ-Myc lymphoma; C57BL/6.Rag2cγ−/− and C57BL/6.Rag1−/− versus wild type C57BL/6): succumbed to disease significantly earlier | survival versus DMSO vehicle (Eμ-Myc lymphoma; immune competent (C57BL/6) and immune deficient (Rag2cγ−/−, Rag1−/−) mice, Eμ-Myc lymphoma #4242 and #299): significant survival advantage | IFN-γ-inducible expression of PD-L1 (MFI) (PD-L1 [3]): downregulates | expression of PD-L1 (CD274) on lymphoma cells (MFI) (PD-L1 (CD274); Eμ-Myc lymphoma #4242 and #299 over-expressing Bcl-2, indicated concentrations): downregulates | time course of PD-L1 downregulation (PD-L1 (CD274); Eμ-Myc lymphoma cell line #6066, 500 nM, indicated time points): time-dependent | expression of PD-L1 (CD274) on lymphoma cells (MFI) (PD-L1 (CD274); [4]): downregulate

COc1cc2c(cc1-c1c(C)noc1C)ncc1[nH]c(=O)n([C@H](C)c3ccccn3)c12 [IBET-1.51]
expression of PD-L1 (CD274) on lymphoma cells (MFI) (PD-L1 (CD274); [4]): downregulate

CCNC(=O)C[C@@H]1N=C(c2ccc(Cl)cc2)c2cc(OC)ccc2-n2c(C)nnc21 [IBET-762]
expression of PD-L1 (CD274) on lymphoma cells (MFI) (PD-L1 (CD274); [4]): downregulate
